Data on one molecule can be found in patent publication US20080075660A1, “Near infrared-fluorescence using phospholipid ether analog dyes in endoscopic applications” (Cellectar, LLC, priority 2006, published 2008).

In one data set the test system is colon tumors. In words: microPET/microCT imaging of I-124-NM404 in colon tumor model in rats (PIRC rat). In kind it is in vivo. From the text:
FIG. 1 provides a 2D microCT projection of an excised PIRC rat colon filled with 2% barium (A) and ^124I-NM404 microPET image in a PIRC Rat (B) and the fused microPET/microCT image (C). Fiducial marker (M), Tumor (arrow).
Multiple tumors have been detected protruding into the colon lumen.

The subject of another data set is malignant tumors. As to conditions: radiolabeled versions (such as I-124), known from earlier studies; cited from earlier work.

Consider `C[N+](C)(C)CCOP(=O)([O-])OCCCCCCCCCCCCCCCCCCc1ccc(I)cc1` [NM404, 18-(p-Iodophenyl)octadecyl phosphocholine], for which the “accumulation in excised colon on microPET image” value in the data set with colon tumors (PIRC rat colon with multiple tumors, microPET) is “one area of accumulation only”. Besides, the “accumulation in colon tumors, fused microCT/microPET image” value in the data set with colon tumors (adenocarcinoma versus other colon tumors) is recorded as “seen only in a tumor that later proved to be an adenocarcinoma”. Besides, in the data set on colon tumors (all other colon tumors, which turned out to be benign polyps), the “accumulation in benign polyps” value is listed as “did not show accumulation”. Besides, the “accumulation in malignant versus benign tumors” value with malignant tumors is reported as “accumulate in malignant tumors, but not in benign tumors such as polyps”.
